In ChEMBL document CHEMBL1155692, “An unusual nitrogenous terphenyl derivative from fruiting bodies of the basidiomycete Sarcodon leucopus” (2000):
Converted amounts (≈) assume the structure as drawn.

Assays:
[1] = tested on: KB; experiment: Cytotoxicity against human KB cells; format: functional; details: read-out: ED50 (the source's name)
[2] = tested on: P388; experiment: Cytotoxicity against mouse P388 cells; format: functional; details: read-out: ED50 (the source's name)

CC[C@@H](C)[C@]12Oc3cc(-c4c(O)c(O)c(-c5ccc(OC(C)=O)cc5)c(OC(C)=O)c4OC(C)=O)ccc3O[N+]1([O-])C(O)=C([C@@H](C)CC)N(O)C2=O (some centres not stated) [SARCODONIN]
EC50 [1]: 10 µg/mL (≈ 13.8 µM) | EC50 [2]: 27 µg/mL (≈ 37.4 µM)
